Common to all, as to assay: Test C pre-/postemergence test
One assay concerns corn. Type of assay: in vivo, Zea mays. Conditions: for Plant response rating, Corn: 31 g ai/ha, scale 0 to 100 (0 no effect, 100 complete control). Put shortly:
(§1)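 Test chemicals were formulated with surfactant in a non-phytotoxic solvent and sprayed both on freshly planted seeds (preemergence) and on 1- to 4-leaf plants of 2–18 cm (postemergence). Flooded-paddy pots received compound directly into 3 cm of standing water, maintained for the test.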

The next assay relates to blackgrass. The class given is in vivo, Alopecurus myosuroides. The settings on record: for Plant response rating, Blackgrass: 31 g ai/ha, scale 0 to 100 (0 no effect, 100 complete control). A digest of the protocol: as §1
A further assay concerns woolly cupgrass. Type of assay: in vivo, Eriochloa villosa. The settings on record: for Plant response rating, Cupgrass, Woolly: 31 g ai/ha, scale 0 to 100 (0 no effect, 100 complete control). A digest of the protocol: as §1
The next assay has as its system Russian thistle. The class given is in vivo, Salsola kali. Conditions: for Plant response rating, Russian Thistle: 31 g ai/ha, scale 0 to 100 (0 no effect, 100 complete control). A digest of the protocol:
as §1

The mark [1] stands for this setting: 62 g ai/ha, Preemergence, scale 0 to 100.
The mark [2] stands for this setting: 125 g ai/ha, preemergence, scale 0 (no effect) to 100 (complete control).
The mark [3] stands for this setting: preemergence, 250 g ai/ha, scale 0 (no effect) to 100 (complete control).

Each structure is given as a SMILES string.

`Cc1cc[n+]([O-])c(S(=O)(=O)Cc2c(C(F)(F)F)nn(C)c2OCC(F)F)c1` [Compound 94]: the “Corn plant response rating” value in the assay on corn (setting [1]) stood at 10; in the assay on corn (setting [2]), 90; with corn (setting [3]), 95. Moreover, the “Blackgrass plant response rating” value in the assay with blackgrass (setting [1]) is 95; with blackgrass (setting [2]), 100; in the assay on blackgrass (setting [3]), 100. Further, the “Plant response rating, Blackgrass” value in the assay on blackgrass (Preemergence) is given as 70. The “Cupgrass, Woolly plant response rating” value in the assay on woolly cupgrass (setting [1]) is 90; in the assay with woolly cupgrass (setting [2]), 100; with woolly cupgrass (setting [3]) it was 100. Moreover, the “Plant response rating, Cupgrass, Woolly” value with woolly cupgrass (Preemergence) worked out at 10. The “Russian Thistle plant response rating” value with Russian thistle (setting [1]), with Russian thistle (setting [2]) and in the assay with Russian thistle (setting [3]) was 100 throughout. Also, the “Plant response rating, Russian Thistle” value with Russian thistle (Preemergence) worked out at 100.
`Cc1cc[n+]([O-])c(S(=O)(=O)Cc2c(C(F)(F)F)nn(C)c2OC(C)C(F)(F)F)c1` (stereo not shown) [Compound 96]: the “Corn plant response rating” value in the assay on corn (setting [1]) stood at 0; with corn (setting [2]), 35; in the assay with corn (setting [3]), 60. Besides, the “Plant response rating, Corn” value in the assay on corn (Preemergence) came out at 0. The “Blackgrass plant response rating” value in the assay with blackgrass (setting [1]), in the assay on blackgrass (setting [2]) and in the assay on blackgrass (setting [3]) was 100 each time. Moreover, in the assay with blackgrass (Preemergence), the “Plant response rating, Blackgrass” value came to 65. Moreover, the “Cupgrass, Woolly plant response rating” value with woolly cupgrass (setting [1]) came out at 70; in the assay on woolly cupgrass (setting [2]), 95; with woolly cupgrass (setting [3]) it was 98. In addition, the “Plant response rating, Cupgrass, Woolly” value in the assay on woolly cupgrass (Preemergence) was determined as 50. The “Russian Thistle plant response rating” value came out at 50 in the assay with Russian thistle (setting [1]), 80 in the assay on Russian thistle (setting [2]) and 100 in the assay with Russian thistle (setting [3]). Moreover, in the assay on Russian thistle (Preemergence), the “Plant response rating, Russian Thistle” value came to 0.
`Cc1cc[n+]([O-])c(S(=O)(=O)Cc2c(C(F)(F)C(F)(F)F)nn(C)c2OCC(F)(F)F)c1` [Compound 99]: the figures for the “Corn plant response rating” value in the assay with corn (setting [1]), with corn (setting [2]) and with corn (setting [3]) were 0, 30 and 50, respectively. In addition, the “Plant response rating, Corn” value in the assay with corn (Preemergence) was determined as 0. Further, the “Blackgrass plant response rating” value with blackgrass (setting [1]), in the assay with blackgrass (setting [2]) and in the assay on blackgrass (setting [3]) was 100 throughout. Also, in the assay with blackgrass (Preemergence), the “Plant response rating, Blackgrass” value worked out at 80. In addition, the entries for the “Cupgrass, Woolly plant response rating” value in the assay with woolly cupgrass (setting [1]), in the assay on woolly cupgrass (setting [2]) and in the assay with woolly cupgrass (setting [3]) were 0, 70 and 85, respectively. The “Plant response rating, Cupgrass, Woolly” value in the assay with woolly cupgrass (Preemergence) stood at 0. Besides, the “Russian Thistle plant response rating” value in the assay on Russian thistle (setting [1]), with Russian thistle (setting [2]) and in the assay on Russian thistle (setting [3]) was 100 each time. The “Plant response rating, Russian Thistle” value in the assay with Russian thistle (Preemergence) is reported as 100.
With `CCc1cc[n+]([O-])c([S+]([O-])Cc2c(C(F)(F)F)nn(C)c2OC(F)F)c1` (stereo not shown) [Compound 101], the “Corn plant response rating” value with corn (setting [1]) is 75; in the assay on corn (setting [2]), 90; in the assay on corn (setting [3]) it was 98. In addition, the “Plant response rating, Corn” value with corn (Preemergence) was 40. In addition, the figures for the “Blackgrass plant response rating” value in the assay with blackgrass (setting [1]), in the assay on blackgrass (setting [2]) and in the assay with blackgrass (setting [3]) were 30, 70 and 90, respectively. For the same molecule, in the assay on blackgrass (Preemergence), the “Plant response rating, Blackgrass” value is given as 0. For the same molecule, the “Cupgrass, Woolly plant response rating” value in the assay with woolly cupgrass (setting [1]) worked out at 80; in the assay with woolly cupgrass (setting [2]), 85; in the assay with woolly cupgrass (setting [3]) it was 95. The “Plant response rating, Cupgrass, Woolly” value in the assay with woolly cupgrass (Preemergence) was determined as 40. In addition, the “Russian Thistle plant response rating” value in the assay on Russian thistle (setting [1]), with Russian thistle (setting [2]) and in the assay on Russian thistle (setting [3]) was 100 throughout. For the same molecule, the “Plant response rating, Russian Thistle” value in the assay on Russian thistle (Preemergence) is recorded as 100.
As to `CCc1cc[n+]([O-])c(S(=O)(=O)Cc2c(C(F)(F)F)nn(C)c2OC(F)F)c1` [Compound 102], the “Corn plant response rating” value with corn (setting [1]), in the assay with corn (setting [2]) and in the assay with corn (setting [3]) was 0 throughout. Further, the “Plant response rating, Corn” value in the assay with corn (Preemergence) worked out at 0. For the same molecule, the “Blackgrass plant response rating” value in the assay with blackgrass (setting [1]) and in the assay on blackgrass (setting [2]) was 80 in each case. Also, the “Plant response rating, Blackgrass” value in the assay with blackgrass (Preemergence) was 10. In addition, the “Cupgrass, Woolly plant response rating” value stood at 85 with woolly cupgrass (setting [1]), 85 with woolly cupgrass (setting [2]) and 95 with woolly cupgrass (setting [3]). Further, the “Plant response rating, Cupgrass, Woolly” value in the assay on woolly cupgrass (Preemergence) is reported as 50. Also, the “Russian Thistle plant response rating” value in the assay with Russian thistle (setting [1]), with Russian thistle (setting [2]) and with Russian thistle (setting [3]) was 100 in each case. Besides, the “Plant response rating, Russian Thistle” value in the assay on Russian thistle (Preemergence) stood at 100.
In the case of `C#CCOc1c(CS(=O)(=O)c2cccc[n+]2[O-])c(C(F)(F)F)nn1C` [Compound 103], the “Corn plant response rating” value in the assay on corn (setting [1]) is 0; with corn (setting [2]) it was 65; with corn (setting [3]), 95. Also, in the assay on corn (Preemergence), the “Plant response rating, Corn” value is on record as 0. For the same molecule, the “Blackgrass plant response rating” value in the assay with blackgrass (setting [1]), in the assay on blackgrass (setting [2]) and in the assay with blackgrass (setting [3]) was 100 throughout. In addition, the “Plant response rating, Blackgrass” value in the assay on blackgrass (Preemergence) is given as 100. Also, the “Cupgrass, Woolly plant response rating” value with woolly cupgrass (setting [1]) stood at 30; in the assay on woolly cupgrass (setting [2]) it was 85; in the assay on woolly cupgrass (setting [3]), 100. Moreover, the “Plant response rating, Cupgrass, Woolly” value in the assay on woolly cupgrass (Preemergence) was determined as 0. The “Russian Thistle plant response rating” value in the assay on Russian thistle (setting [1]), in the assay on Russian thistle (setting [2]) and in the assay on Russian thistle (setting [3]) was 100 each time. The “Plant response rating, Russian Thistle” value with Russian thistle (Preemergence) came to 100.
